From the supplement of paper PMC10307832

How the values were obtained:
Test in all cases: relative viability (nuclei count vs DMSO), 5 days (fraction); higher = more cells survive
Selumetinib = compound: Cn1cnc2c(F)c(Nc3ccc(Br)cc3Cl)c(C(=O)NOCCO)cc21 [Selumetinib]
Outline: (§1)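 Vehicle-anchored 1536-well plates of lung cancer cell lines, held overnight at 37 °C, were pinned with five library-drug doses (not always all listed) spaced by √10. No medium change followed over the next 5 days, after which the cells were fixed, permeabilised and Hoechst-stained together and imaged at 4×. Nuclei were counted with MetaXpress, and viability is treated-well nuclei over vehicle-well nuclei, taken as a median across plates. Plates passed with control CV below 25% and at least one doubling.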

Venetoclax = compound: CC1(C)CCC(CN2CCN(c3ccc(C(=O)NS(=O)(=O)c4ccc(NCC5CCOCC5)c([N+](=O)[O-])c4)c(Oc4cnc5[nH]ccc5c4)c3)CC2)=C(c2ccc(Cl)cc2)C1 [Venetoclax]
Outline: as §1

Selumetinib + Pemetrexed = compound: Cn1cnc2c(F)c(Nc3ccc(Br)cc3Cl)c(C(=O)NOCCO)cc21 [Selumetinib] + Nc1nc2[nH]cc(CCc3ccc(C(=O)N[C@@H](CCC(=O)O)C(=O)O)cc3)c2c(=O)[nH]1 [Pemetrexed] (partner 0.2 µM)
Outline: (§2)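 Relative viability divides the nuclei count in treated wells by that in vehicle wells. Lung cancer cell lines were seeded in 1536-well plates, dosed by pin tool the next day, and fixed and stained after 5 days in one step with final 0.05% Triton X-100, 1% formaldehyde and 1 ug/ml Hoechst. Dosing was a single drug or a fixed anchor-drug dose plus five library-drug doses (not always all listed) in √10 steps, and values are medians of duplicate plates imaged at 4×.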

Venetoclax + OSI-027 = compound: CC1(C)CCC(CN2CCN(c3ccc(C(=O)NS(=O)(=O)c4ccc(NCC5CCOCC5)c([N+](=O)[O-])c4)c(Oc4cnc5[nH]ccc5c4)c3)CC2)=C(c2ccc(Cl)cc2)C1 [Venetoclax] + COc1cccc2cc(-c3nc([C@H]4CC[C@H](C(=O)O)CC4)n4ncnc(N)c34)[nH]c12 [OSI-027] (partner 0.5 µM)
Outline: as §2

Row | Cell Line | relative viability (Selumetinib; 0.02 µM) | relative viability (Selumetinib; 0.06325 µM) | relative viability (Selumetinib; 0.2 µM) | relative viability (Selumetinib; 0.6325 µM) | relative viability (Venetoclax; 0.01 µM) | relative viability (Venetoclax; 0.03162 µM) | relative viability (Venetoclax; 0.1 µM) | relative viability (Venetoclax; 0.3162 µM) | relative viability (Venetoclax; 1 µM) | relative viability (Selumetinib + Pemetrexed; first compound 0.02 µM) | relative viability (Selumetinib + Pemetrexed; first compound 0.06325 µM) | relative viability (Selumetinib + Pemetrexed; first compound 0.2 µM) | relative viability (Selumetinib + Pemetrexed; first compound 0.6325 µM) | relative viability (Venetoclax + OSI-027; first compound 0.01 µM) | relative viability (Venetoclax + OSI-027; first compound 0.03162 µM) | relative viability (Venetoclax + OSI-027; first compound 0.1 µM) | relative viability (Venetoclax + OSI-027; first compound 0.3162 µM) | relative viability (Venetoclax + OSI-027; first compound 1 µM)
1 | HCC-366 | 0.967 | 0.992 | 0.842 | 0.851 | 0.995 | 1.03 | 0.986 | 1.02 | 0.939 | 0.224 | 0.191 | 0.234 | 0.206 | 0.873 | 0.958 | 0.628 | 0.95 | 0.573
2 | HCC-827 | 1.03 | 1.06 | 0.994 | 0.941 | 1.03 | 1.07 | 0.924 | 1.02 | 1.04 | 0.25 | 0.277 | 0.269 | 0.288 | 0.799 | 0.839 | 0.776 | 0.733 | 0.755
3 | HOP-62 | 1.02 | 0.897 | 0.886 | 0.549 | 1 | 1.05 | 0.989 | 0.973 | 0.927 | 0.31 | 0.382 | 0.348 | 0.321 | 0.879 | 0.861 | 0.842 | 0.838 | 0.78
4 | IA-LM | 0.776 | 0.442 | 0.246 | 0.186 | 0.813 | 1.05 | 0.886 | 0.915 | 0.886 |  |  |  |  |  |  |  |  | 
5 | LC-2-ad | 0.948 | 0.896 | 0.885 | 0.899 | 0.942 | 1.01 | 0.978 | 1 | 0.964 | 0.263 | 0.269 | 0.273 | 0.277 | 1.01 | 0.934 | 0.72 | 0.905 | 0.845
6 | LCLC-97TM1 | 0.94 | 0.846 | 0.735 | 0.413 | 0.901 | 1.16 | 0.815 | 0.962 | 0.853 | 0.186 | 0.237 | 0.219 | 0.258 | 0.519 | 0.704 | 0.556 | 0.478 | 0.465
7 | LCLC-103H | 0.916 | 0.897 | 0.87 | 0.84 | 1.06 | 0.999 | 1.04 | 1.01 | 1 | 0.437 | 0.479 | 0.5 | 0.519 | 0.5 | 0.492 | 0.502 | 0.404 | 0.404
8 | LK-2 | 1.08 | 1.05 | 0.88 | 1.04 | 0.947 | 1.11 | 0.929 | 0.938 | 1.02 | 0.282 | 0.349 | 0.352 | 0.375 | 0.317 | 0.204 | 0.22 | 0.22 | 0.161
9 | LOU-NH91 | 0.935 | 0.884 | 0.899 | 0.901 | 0.969 | 1.09 | 0.942 | 0.954 | 0.925 | 0.438 | 0.397 | 0.458 | 0.385 | 0.674 | 0.762 | 0.726 | 0.755 | 0.673
10 | LU99A | 1.01 | 1.05 | 0.91 | 0.912 | 1.02 | 1.01 | 0.84 | 0.987 | 0.994 | 0.195 | 0.184 | 0.184 | 0.245 | 0.288 | 0.321 | 0.316 | 0.338 | 0.295
11 | LXF-289 | 0.948 | 0.932 | 0.835 | 0.778 | 1.17 | 1.02 | 0.944 | 0.956 | 0.883 | 0.865 | 0.848 | 0.763 | 0.808 | 0.753 | 0.857 | 0.881 | 0.771 | 0.623
12 | NCI-H23 | 1.05 | 0.78 | 0.758 | 0.674 | 1 | 1.06 | 0.85 | 1.07 | 0.877 | 0.811 | 0.43 | 0.465 | 0.529 | 0.592 | 0.625 | 0.525 | 0.683 | 0.439
13 | NCI-H322M | 0.83 | 0.681 | 0.651 | 0.624 | 1.05 | 0.982 | 0.899 | 1.06 | 0.938 | 0.546 | 0.524 | 0.564 | 0.562 | 0.667 | 0.575 | 0.605 | 0.564 | 0.48
14 | NCI-H358 | 0.618 | 0.456 | 0.373 | 0.31 | 1.04 | 0.916 | 0.898 | 0.975 | 0.863 | 0.173 | 0.165 | 0.144 | 0.177 | 0.747 | 0.841 | 0.697 | 0.83 | 0.695
15 | NCI-H441 | 1.18 | 0.922 | 0.827 | 0.649 | 0.952 | 1.08 | 0.97 | 0.974 | 0.865 | 0.283 | 0.248 | 0.275 | 0.308 | 0.569 | 0.566 | 0.608 | 0.575 | 0.553
16 | NCI-H727 | 0.5 | 0.418 | 0.352 | 0.385 | 1.17 | 0.993 | 0.848 | 0.953 | 0.827 |  |  |  |  | 0.68 | 0.762 | 0.525 | 0.63 | 0.723
17 | NCI-H1299 | 1.04 | 1.03 | 1.02 | 0.889 | 1.02 | 1.03 | 1.01 | 1.01 | 0.949 |  |  |  |  |  |  |  |  | 
18 | NCI-H1623 | 0.85 | 0.83 | 0.79 | 0.714 | 0.951 | 1.02 | 0.96 | 1.01 | 1.02 |  |  |  |  | 0.419 | 0.424 | 0.414 | 0.444 | 0.424
19 | NCI-H1703 | 0.974 | 0.816 | 0.9 | 0.909 | 0.869 | 0.953 | 0.917 | 0.99 | 0.788 |  |  |  |  |  |  |  |  | 
